# Test results taken from patent US20040093079A1, “Compositions and methods for the reduction of post-angioplasty stenosis” (priority 2001, published 2004).
# Tests used:
# [1] = target: T1, soluble guanylyl cyclase (sGC) (Homo sapiens, UniProt Q02108+Q02153); conditions: cited from earlier work
# T1 sequence (Q02153 1-619): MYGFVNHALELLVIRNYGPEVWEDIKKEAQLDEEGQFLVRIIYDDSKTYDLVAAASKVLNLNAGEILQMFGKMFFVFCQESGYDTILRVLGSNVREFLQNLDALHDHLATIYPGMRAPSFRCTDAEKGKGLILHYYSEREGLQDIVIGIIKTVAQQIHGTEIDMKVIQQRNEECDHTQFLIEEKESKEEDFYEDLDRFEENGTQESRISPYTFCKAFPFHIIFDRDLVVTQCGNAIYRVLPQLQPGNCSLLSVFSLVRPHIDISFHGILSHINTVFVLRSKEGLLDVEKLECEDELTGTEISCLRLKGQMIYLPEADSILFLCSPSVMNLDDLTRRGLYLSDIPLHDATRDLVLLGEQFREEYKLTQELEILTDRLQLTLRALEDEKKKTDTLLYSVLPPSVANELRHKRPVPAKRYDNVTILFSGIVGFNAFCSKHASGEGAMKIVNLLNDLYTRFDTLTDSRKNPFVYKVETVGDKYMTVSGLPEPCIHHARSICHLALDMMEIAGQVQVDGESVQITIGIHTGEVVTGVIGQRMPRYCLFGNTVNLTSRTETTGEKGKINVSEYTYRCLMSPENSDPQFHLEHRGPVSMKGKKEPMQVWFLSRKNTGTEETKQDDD
# T1 sequence (Q02108 1-690): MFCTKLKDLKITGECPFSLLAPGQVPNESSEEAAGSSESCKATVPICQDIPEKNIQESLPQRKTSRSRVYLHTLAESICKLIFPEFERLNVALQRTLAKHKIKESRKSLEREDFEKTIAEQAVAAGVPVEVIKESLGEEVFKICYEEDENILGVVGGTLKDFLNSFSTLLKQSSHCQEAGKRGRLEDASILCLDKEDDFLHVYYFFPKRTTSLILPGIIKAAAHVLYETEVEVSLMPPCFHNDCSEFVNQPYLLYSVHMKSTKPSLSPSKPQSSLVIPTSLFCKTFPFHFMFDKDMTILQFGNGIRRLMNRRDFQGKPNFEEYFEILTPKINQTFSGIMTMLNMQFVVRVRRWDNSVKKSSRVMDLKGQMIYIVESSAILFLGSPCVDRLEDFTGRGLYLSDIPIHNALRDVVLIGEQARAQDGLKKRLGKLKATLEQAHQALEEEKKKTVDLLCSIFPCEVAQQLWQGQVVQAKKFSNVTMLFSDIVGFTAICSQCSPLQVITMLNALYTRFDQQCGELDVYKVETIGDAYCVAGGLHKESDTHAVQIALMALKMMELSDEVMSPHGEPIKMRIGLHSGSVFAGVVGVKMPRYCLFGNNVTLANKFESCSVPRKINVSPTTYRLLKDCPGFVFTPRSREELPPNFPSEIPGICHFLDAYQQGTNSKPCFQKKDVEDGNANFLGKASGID
# [2] = tested on: vessel wall cGMP (sGC/cGMP system) in left carotid artery; assay: Cyclic GMP levels by RIA in balloon injured left carotid artery sections after perivascular YC-1; format: in vivo, rat
# Method: Cyclic GMP levels were measured in vessel samples with a competitive RIA using ^125I-labeled cGMP, following instructions from the manufacturer (Amersham Pharmacia Biotech, Piscataway, N.J.). […]
# [3] = tested on: balloon injured left carotid artery (neointima formation); assay: Morphometric and histologic analysis of balloon-injured left carotid artery 2 weeks post-injury; format: in vivo, rat
# Method: The established rat carotid artery (CA) provided the model of balloon angioplasty to illustrate the in vivo arterial response to injury. Male Sprague Dawley rats (Harlan, Indianapolis, Ind.) weighing an average 497 g were anesthetized with a combination anesthetic (ketamine, zylazine, and acepromazine; 0.5-0.7 ml/kg, IM; VetMed Drugs, Houston, Tex.), and the left CA and external carotid branch exposed.
# A Fogarty 2F embolectomy catheter (Baxter Healthcare Corp., Irvine, Calif.) was introduced into the external carotid branch through an arteriotomy incision and advanced to the aortic arch. The balloon was inflated and withdrawn three times with rotation. The catheter was removed and the external carotid ligated. The overlying tissue was sutured and the skin closed with rodent wound clips.
# In one embodiment, the entire length of the left CA was balloon injured, immediately followed by perivascular application of YC-1 (1 mg) on the distal section. Sites where tissues were taken for “distal+YC-1” and “proximal−YC-1” are indicated. The right CA served as an uninjured control. EC=external carotid branch; IC=internal carotid branch.
# Immediately following balloon injury, at least about 200 μl of a 25% solution of a copolymer gel (Pluronic F-127; BASF Corporation, Mount Olive, N.J.) plus YC-1 (at least about 1 mg in 50 μl DMSO; Calbiochem, La Jolla, Calif.) was administered topically to the exposed adventitia of the distal CA section. […] In all experiments, the entire length of the left CA was injured (avg. 22 mm), while the contralateral right CA served as an unmanipulated untreated control. Only the distal half of the injured left CA was exposed during the surgery, and this section (approximately 11 mm) was treated with YC-1 (or empty gel) while the proximal half remained untreated. A cohort of animals that was balloon-injured and not exposed to any gel or other treatment served as a separate control group.
# Acute studies illustrating enzyme and cGMP induction used freshly obtained tissues that were removed from the sacrificed animal and immediately snap-frozen. In one embodiment, two week studies were performed and morphologic remodeling of the vessel wall was monitored in tissue from animals that were perfusion-fixed transcardially using warmed PBS followed by 10% buffered formalin phosphate. Tissues were fixed, processed by standard procedures, and paraffin-embedded, procedures that are well-known to those of ordinary skill in the art of histology. Five micron sections were cut using a rotary microtome and placed on pre-treated slides. For Verhoff's elastic tissue staining, slides were deparaffinized and stained with Verhoff's solution of alcoholic hematoxylin, ferric chloride, and potassium iodine. Slides differentiated with ferric chloride and counterstained with Van Gieson's solution containing 1% acid fuchsin and picric acid.
# Microscopic quantitation of vessel dimensions was performed using Zeiss Image 3.0 (Media Cybernetics) and Adobe Photoshop 4.0™ (Adobe Systems) software systems linked through a CCD color camera (Leaf Microlumina, Leaf Systems, USA) to a Zeiss Axioskop 50 light microscope (Carl Zeiss, Germany). Images were measured for perimeters and areas corresponding to internal and external elastic laminae and lumen. Numerical transformations provided data for neointimal and medial wall areas and vessel diameters.
# FIG. 6 depicts representative morphometric analyses for (a) neointimal cross-sectional area, (b) neointimal area/medial wall area ratio, (c) neointimal thickness and (d) medial wall area [(a), (b) and (c) statistically significant with p<0.001; (d) statistically significant with p<0.05]. Data for balloon injured left CA distal sections exposed to YC-1 (“distal+YC-1”) and for balloon injured left CA proximal sections not exposed to YC-1 (“proximal−YC-1”) are shown. Values represent mean±SE. For all parameters n=6 animals in the control group and n=9 animals in the YC-1 treated group.
# vascular HO-1 = conditions: pharmacologic administration of hemin; cited from earlier work
compound,measurement,setting,value
"[C-]#[O+] [CO, carbon monoxide]",activation of the purified enzyme (sGC),[1],4- to 6 fold
"[N]=O [NO, nitric oxide]",activation of the purified enzyme (sGC),[1],400 fold
"OCc1ccc(-c2nn(Cc3ccccc3)c3ccccc23)o1 [YC-1, 3-(5′-hydroxymethyl-2′-furyl)-1-benzyl indazole]",YC-1 induced alterations in cGMP,[2]; CA sections from a separate group of uninjured rats (data not shown),do not show YC-1 induced alterations in cGMP
same,cGMP content,"[2]; injured CA distal sections exposed to YC-1 (1 mg in gel), 24 hours post-injury, mean±SE, n=5, proximal unexposed sections 0.64±0.11, p=0.012",1.23±0.13
same,histology of elastin-stained cross-section: adventitia and collagen staining,"[3]; FIG. 5 panel (B), distal section treated with 1 mg YC-1, 2 weeks post-injury",decreased adventitia and reduced collagen staining
same,lengths of internal elastic laminae and external elastic laminae,"[3]; between and among all treatment groups, 2 weeks post-injury",No differences were detected
same,"neointimal cross-sectional area, attenuation","[3]; distal YC-1 (1 mg) sections vs proximal unexposed sections of same vessel, 2 weeks post-injury, p<0.001, n=9",−74%
same,"neointimal thickness, attenuation","[3]; distal YC-1 (1 mg) sections vs proximal unexposed sections, 2 weeks post-injury, p<0.001, n=9",-76%
same,"medial wall cross-sectional area, diminution","[3]; distal YC-1 (1 mg) sections vs proximal unexposed sections, 2 weeks post-injury, p<0.05, n=9",−12%
same,"neointimal area/medial wall area ratio, attenuation","[3]; distal YC-1 (1 mg) sections vs proximal unexposed sections, 2 weeks post-injury, p=0.001, n=9",−72%
same,stimulation of CO-induced sGC (specific activity),[1],approximately 400 fold
hemin,vascular HO-1 expression,vascular HO-1,upregulated vascular HO-1
